# Target: T1, c-Kit (Homo sapiens, UniProt P10721)
# T1 construct: purchased Cell Signaling Technology CO
# Assay: Protein kinase activity by ELISA in vitro, c-Kit
# Type: biochemical
# Settings: concentration of 10^−7 mol/L; read-out: kinase inhibition ratio, c-Kit
# Description: (§1) An ELISA (Enzyme-Linked Immunosorbent Sandwich Assay) procedure may be used to detect and measure the level of protein tyrosine kinase activity. Tyrosine kinases such as VEGFR-2, PDGFR-β and c-Kit etc. catalyze the phosphorylation reaction of ATP and biotin-labeled peptide substrate, which will be ceased when the kinase activity is inhibited. According to the principle of ELISA, a monoclonal antibody can react with phosphorylated substrate specially, so biotin-labeled substrate is binded to streptavidin-coated ELISA plate, and then binded to a HRP-labeled goat anti-mouse antibody. Finally TMB is added for a color reaction and the value of A450-A630 is read by ELISA plate reader. The OD value can reflect the inhibitory activity of the VEGFR-2, PDGFR-β, c-Kit tyrosine kinases etc. treated with the test compounds at the different concentrations. So, the assay may be used to measure the inhibition ratio of the compounds for the tyrosine kinase activity. Similar assays can be designed along the same lines for any PK using techniques well known in the art.
# as §1, with “Tyrosine” for “An ELISA (Enzyme-Linked Immunosorbent Sandwich Assay) procedure may be used to detect and measure the level of protein tyrosine kinase activity. Tyrosine”, “PDGFR-β” for “PDGFR-β,”, “kinases” for “kinases etc.”
# VEGF Receptor 2, PDGF Receptor-beta and c-kit kinase assay kit (include kinase, 1.25M DTT, substrate peptide, 10 mM ATP, P-Tyr-100 Mouse antibody, 4×HTScan tyrosine kinase buffer), Cell Signaling Technology CO.; HRP labeled goat anti mouse IgG, Protein Tech CO.; TMB, Pierce CO.; Streptavidin Microtitration Plate, Greiner Bio-one CO.; Infinite M200 Reader, Tecan CO.
# 1.2.1 Immediately transfer enzyme from −80° C. to ice. Allow enzyme to thaw on ice then at 4° C. and centrifugate transiently to the bottom of centrifuge tube, then lay back on ice quickly
# 1.2.2 Add 10 μl of DTT (1.25 M) to 2.5 ml of 4×HTScan tyrosine kinase buffer (240 mM HEPES pH 7.5, 20 mM MgCl2, 20 mM MnCl2, 12 μM Na3VO4). Transfer 0.6 ml of DTT/Kinase buffer to each enzyme tube to make 4× reaction Cocktail. Incubate 12.5 μl of the 4× reaction cocktail with 12.5 μl/well prediluted compound of interest for 5 minutes at room temperature, and set blank control, free-enzyme control, negative control and positive control. 1.2.3 Add 10 μl 10 mM ATP to 1.25 ml 6 μM substrate peptide. Dilute the mixture with dH20 to 2.5 ml to make 2×ATP/substrate cocktail. Add 25 μl of 2×ATP/substrate cocktail to 25 μl/well preincubated reaction cocktail/compound. Incubate reaction plate at room temperature for 30 minutes. 1.2.4 Add 50 μl/well stop Buffer (50 mM EDTA, pH 8) to stop the reaction. Transfer 25 μl of each reaction and 75 μl dH2O/well to a 96-well streptavidin coated plate and incubate at room temperature for 60 minutes. Wash three times with 200 μl/well PBS/T(1×PBS, 0.05% Tween-20). 1.2.5 Dilute primary antibody, Phospho-Tyrosine mAb (P-Tyr-100), 1:500 in PBS/T with 1% BSA. Add 100 μl/well primary antibody. Incubate at room temperature for 60 minutes. Wash three times with 200 μl/well PBS/T(1×PBS, 0.05% Tween-20). 1.2.6 Prepare appropriate dilution of HRP labeled secondary antibody, 1:500 in PBS/T with 1% BSA. Add 100 μl/well secondary antibody solution. Incubate at room temperature for 30 minutes. […]
# T1 sequence (P10721 26-976): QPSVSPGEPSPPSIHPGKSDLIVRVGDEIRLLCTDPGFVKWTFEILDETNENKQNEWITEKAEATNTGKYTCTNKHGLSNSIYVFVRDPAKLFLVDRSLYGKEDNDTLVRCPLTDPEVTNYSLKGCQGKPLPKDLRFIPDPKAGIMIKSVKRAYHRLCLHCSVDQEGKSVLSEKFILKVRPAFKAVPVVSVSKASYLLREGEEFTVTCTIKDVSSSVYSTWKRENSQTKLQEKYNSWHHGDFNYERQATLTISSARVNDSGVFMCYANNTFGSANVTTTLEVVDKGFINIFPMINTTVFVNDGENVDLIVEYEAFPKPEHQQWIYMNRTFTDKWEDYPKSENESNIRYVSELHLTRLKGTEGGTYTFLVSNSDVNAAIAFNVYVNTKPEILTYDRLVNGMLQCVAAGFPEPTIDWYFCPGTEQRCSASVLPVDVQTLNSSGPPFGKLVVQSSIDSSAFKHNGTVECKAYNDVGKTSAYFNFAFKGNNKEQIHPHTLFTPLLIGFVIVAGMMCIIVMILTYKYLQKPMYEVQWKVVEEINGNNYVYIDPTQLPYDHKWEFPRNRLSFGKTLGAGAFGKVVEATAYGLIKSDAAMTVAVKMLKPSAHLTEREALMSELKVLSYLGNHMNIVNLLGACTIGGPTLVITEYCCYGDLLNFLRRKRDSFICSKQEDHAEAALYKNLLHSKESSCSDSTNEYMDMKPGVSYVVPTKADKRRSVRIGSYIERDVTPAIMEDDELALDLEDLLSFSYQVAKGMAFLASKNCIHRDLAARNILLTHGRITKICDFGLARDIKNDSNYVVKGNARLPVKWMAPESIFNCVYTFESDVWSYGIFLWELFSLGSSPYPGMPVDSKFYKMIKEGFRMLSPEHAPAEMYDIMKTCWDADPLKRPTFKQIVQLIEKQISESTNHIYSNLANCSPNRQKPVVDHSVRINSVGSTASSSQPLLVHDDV
row,SMILES,inhibition at 0.1 µM
1,"CCN(CC)CCNC(=O)c1c(C)[nH]c2c1CCC/C2=C1/C(=O)Nc2ccc(F)cc21 [I-2, N-(2-(diethylamino)ethyl)-2-methyl-7-[1,2-dihydro-5-fluoro-2-oxo-3H-indol-(Z)-3-ylidene]-4,5,6,7-tetrahydro-1H-indole-3-carboxamide]",46%
2,"Cc1[nH]c2c(c1C(=O)NCCN(C)C)CCC/C2=C1/C(=O)Nc2ccc(F)cc21 [I-6, N-(2-(dimethylamino)ethyl)-2-methyl-7-[1,2-dihydro-5-fluoro-2-oxo-3H-indol-(Z)-3-ylidene]-4,5,6,7-tetrahydro-1H-indole-3-carboxamide]",77%
3,"CCN(CC)CCNC(=O)c1c(C)[nH]c2c1CCC/C2=C1/C(=O)Nc2ccc(C)cc21 [I-4, N-(2-(diethylamino)ethyl)-2-methyl-7-[1,2-dihydro-5-methyl-2-oxo-3H-indol-(Z)-3-ylidene]-4,5,6,7-tetrahydro-1H-indole-3-carboxamide]",60%
4,"CCN(CC)CC(O)CNC(=O)c1c(C)[nH]c2c1CCC/C2=C1/C(=O)Nc2ccccc21 (stereo not drawn) [I-63, N-(3-(diethylamino)-2-hydroxypropyl)-2-methyl-7-[1,2-dihydro-2-oxo-3H-indol-(Z)-3-ylidene]-4,5,6,7-tetrahydro-1H-indole-3-carboxamide]",73%
5,"Cc1[nH]c2c(c1C(=O)NCCO)CCC/C2=C1/C(=O)Nc2ccccc21 [I-8, N-(2-hydroxyethyl)-2-methyl-7-[1,2-dihydro-2-oxo-3H-indol-(Z)-3-ylidene]-4,5,6,7-tetrahydro-1H-indole-3-carboxamide]",77%
6,"CCN(CC)CCNC(=O)c1c(C)[nH]c2c1CCC/C2=C1/C(=O)Nc2ccccc21 [I-5, N-(2-(diethylamino)ethyl)-2-methyl-7-[1,2-dihydro-2-oxo-3H-indol-(Z)-3-ylidene]-4,5,6,7-tetrahydro-1H-indole-3-carboxamide]",67%
7,"Cc1[nH]c2c(c1C(=O)NCCCN(C)C)CCC/C2=C1/C(=O)Nc2ccc(Cl)cc21 [I-7, N-(3-(dimethylamino)propyl)-2-methyl-7-[1,2-dihydro-5-chloro-2-oxo-3H-indol-(Z)-3-ylidene]-4,5,6,7-tetrahydro-1H-indole-3-carboxamide]",74%
8,"Cc1[nH]c2c(c1C(=O)NCC(O)CN1CCCC1)CCC/C2=C1/C(=O)Nc2ccccc21 (stereo not drawn) [I-70, N-(2-hydroxy-3-(pyrrolidin-1-yl)propyl)-2-methyl-7-[1,2-dihydro-2-oxo-3H-indol-(Z)-3-ylidene]-4,5,6,7-tetrahydro-1H-indole-3-carboxamide]",76%
9,"CCN(CC)CCNC(=O)c1c(C)[nH]c2c1CCC/C2=C1/C(=O)Nc2ccc(Cl)cc21 [I-3, N-(2-(diethylamino)ethyl)-2-methyl-7-[1,2-dihydro-5-chloro-2-oxo-3H-indol-(Z)-3-ylidene]-4,5,6,7-tetrahydro-1H-indole-3-carboxamide]",43%
